{"source": "patent US20100168038A1", "about": "“USE OF COMPOUNDS IN COMBINATION WITH GAMMA-IRRADIATION FOR THE TREATMENT OF CANCER” (priority 2006, published 2010)", "key": {"[1]": {"test_system": "Lewis Lung Carcinoma (LLC) cells", "assay": "Tumor growth of Lewis Lung Carcinoma (LLC) in mice, compound with or without gamma-irradiation", "assay_type": "in vivo, mouse", "settings": "for tumor volume / tumor volume, mean: LLC; for tumor volume: single mouse; for tumor volume, mean: group mean", "text": "(§1) Tumor Growth Experiments. Tumor cells were washed in PBS and resuspended in a volume of 200 micro-l per inoculate. The cells were then inoculated into the right flank at 10^6 per mouse and growth of the tumor was monitored by measurement two times per week. The initiation of anti-tumor treatment of the mice was to some extent individualized according to when tumor growth started in each mouse. The mice were irradiated with 4 Gy prior to tumor inoculation in order to inhibit anti-tumor immune responses. The tumor volume was calculated as the mean volume in mice with tumors growth, according to (a1×a2×a3)/2 (the numbers ai denote tumor diameter, width and depth). The time of first palpation varied between different mice, although the general pattern of growth was similar in virtually all of the mice. In most diagrams a log-scale is used to better visualize the therapeutic effects against small tumors, i.e. the presence of complete rejections. For inhibition of TPPII in vivo we made intraperitoneal injections with 13.8 mg per kg of body weight (14 micro-l of a 50 mM solution/mouse) of the Subtilisin inhibitor Z-Gly-Leu-Ala-OH (Z-GLA-OH, Bachem, Weil am Rhein, Germany) twice per week, diluted into 200 micro-l PBS. All gamma-irradiations were full body exposures.\nTable 2 contains in vivo data, showing tumor volume in mm^3, in groups of 4 mice with LLC (Lewis Lung Carcinoma). Mice were sacrificed if the tumor volume exceeded 1000 mm^3. Some mice were administered with the compounds alone; others were additionally administered with irradiation. Mice were given the compounds, and in some cases also gamma irradition (400 Rad), at days 7, 10, 14, 18 and 21."}, "[2]": {"test_system": "DBA/2-c-Myc/Bcl-xL cells", "assay": "Tumor growth of DBA/2-c-Myc/Bcl-xL cells in DBA/2 mice", "assay_type": "in vivo, mouse", "text": "as §1\nRetroviral transduction and transplantation. […]\nDetection of GFP and YFP expression was performed using a Cyan™ ADP cytometer (Dako, Glostrup, Denmark) where after excitation at 488 nm, a 525-nm long-pass dichroic mirror was used to initially separate the signals followed by a 510/21-nm bandpass filter for detection of EGFP and a 550/30-nm band pass filter for EYFP. Data were analyzed using FlowJo software (Tree Star, Inc., San Carlos, Calif.). […]"}, "[3]": {"assay": "Stability in serum", "assay_type": "in vitro ADME"}, "[4]": {"assay": "Toxicity study in vivo, single agent", "settings": "doses up to 100 mg/kg, preliminary study"}, "[5]": {"settings": "compound + gamma irradiation (400 Rad), day 10"}, "[6]": {"settings": "compound + gamma irradiation (400 Rad), day 14"}, "[7]": {"settings": "compound + gamma irradiation (400 Rad), day 18"}, "[8]": {"settings": "compound + gamma irradiation (400 Rad), day 21"}}, "note": "Several values for one entry are separate records, joined by “and”; a condition that tells them apart may be missing. Identical values can stand only once. Residues, ends and D or L forms follow the SMILES beside them.", "data": [{"smiles": "CC(C)C[C@H](NC(=O)CNC(=O)OCc1ccccc1)C(=O)N[C@@H](C)C(=O)O", "note": "[Z-GLA-OH, Z-Gly-Leu-Ala-OH] (HELM PEPTIDE1{[O=C(OCc1ccccc1)[*:2]].G.L.A}$$$$V2.0)", "values": [{"measurement": "tumor volume", "setting": "[1]; compound + gamma irradiation (400 Rad) at days 7, 10, 14, 18, 21, day 7", "value": "4.0 mm^3 and 6.0 mm^3 (2×) and 0.0 mm^3"}, {"measurement": "tumor volume, mean", "setting": "[1]; compound + gamma irradiation (400 Rad), day 7", "value": 4.00, "unit": "mm^3"}, {"measurement": "tumor volume, mean", "setting": "[1]; [5]", "value": 64.00, "unit": "mm^3"}, {"measurement": "tumor volume", "setting": "[1]; [5]", "value": "48.0 mm^3 and 128.0 mm^3 and 40.0 mm^3 (2×)"}, {"measurement": "tumor volume, mean", "setting": "[1]; [6]", "value": 84.00, "unit": "mm^3"}, {"measurement": "tumor volume", "setting": "[1]; [6]", "value": "72.0 mm^3 (2×) and 144.0 mm^3 and 48.0 mm^3"}, {"measurement": "tumor volume, mean", "setting": "[1]; [7]", "value": 25.38, "unit": "mm^3"}, {"measurement": "tumor volume", "setting": "[1]; [7]", "value": "32 mm^3 (2×) and 24 mm^3 and 13.5 mm^3"}, {"measurement": "tumor volume, mean", "setting": "[1]; [8]", "value": 7.00, "unit": "mm^3"}, {"measurement": "tumor volume", "setting": "[1]; [8]", "value": "13.5 mm^3 (2×) and 0.5 mm^3 (2×)"}, {"measurement": "tumor volume, mean", "setting": "[1]; compound alone, day 7", "value": 5.88, "unit": "mm^3"}, {"measurement": "tumor volume", "setting": "[1]; compound alone, day 7 after tumor inoculation", "value": "4.0 mm^3 and 0.0 mm^3 and 6.0 mm^3 and 13.5 mm^3"}, {"measurement": "tumor volume, mean", "setting": "[1]; compound alone, day 10", "value": 150.25, "unit": "mm^3"}, {"measurement": "tumor volume", "setting": "[1]; compound alone, day 10", "value": "256.0 mm^3 and 192.0 mm^3 and 9.0 mm^3 and 144.0 mm^3"}, {"measurement": "tumor volume, mean", "setting": "[1]; compound alone, day 14", "value": 748, "unit": "mm^3"}, {"measurement": "tumor volume", "setting": "[1]; compound alone, day 14", "value": "660.0 mm^3 and 864.0 mm^3 and 720.0 mm^3"}, {"measurement": "tumor volume, mean", "setting": "[1]; compound alone, day 18", "value": 1300.67, "unit": "mm^3"}, {"measurement": "tumor volume", "setting": "[1]; compound alone, day 18", "value": "864 mm^3 and 1470 mm^3 and 1568 mm^3"}, {"measurement": "tumor volume", "setting": "[1]; compound alone, day 21", "value": 2048.0, "unit": "mm^3"}, {"measurement": "effect on LLC tumors", "setting": "[1]; Z-GLA-OH only, in the absence of gamma-irradiation", "value": "no effect"}, {"measurement": "tumor response", "setting": "[1]; established LLC tumors, gamma-irradiation 4 Gy doses + Z-GLA-OH injection", "value": "complete regression"}, {"measurement": "tumor cells in lung, spleen or liver", "setting": "[2]; Z-GLA-OH 13.8 mg/kg + gamma-irradiation, flow cytometry, histology", "value": "failed to find tumor cells"}, {"measurement": "tumor response", "setting": "[2]; Z-GLA-OH only, no gamma-irradiation", "value": "no reduction of tumor size"}, {"measurement": "tumor response", "setting": "[2]; established DBA/2-c-Myc/Bcl-xL tumors, Z-GLA-OH 13.8 mg/kg + 4 Gy doses of gamma-irradiation", "value": "complete tumor regression"}, {"measurement": "stability in serum", "setting": "[3]", "value": "relatively stable in serum"}, {"measurement": "toxicity in vivo", "setting": "[4]", "value": "minor effects"}]}]}
